This is an account of results in US8871933B2, “Purified pyrroloquinolinyl-pyrrolidine-2,5-dione compositions and methods for preparing and using same” (ArQule, Inc., priority 2009, dated 2014).

By IC50 is commonly meant the point on the concentration scale where inhibition reaches its midpoint. Read a low IC50 as higher potency. What is called inhibition is the share of the control response that was lost under treatment. A high value points to a response far below the control.

Data set [1] relates to HT-29 human colon cancer cells. The data set can be described thus: Human colon cancer xenograft. The data set is classed as in vivo, female athymic nude mice. The note with it: for optimal tumor growth inhibition: 20 treatments. On the procedure: In a human colon cancer xenograft model HT-29 human colon cancer cells were inoculated subcutaneously into female athymic nude mice (5×10^6 cells/mouse) and allowed to form palpable tumors. Once the tumors reached approximately 60 mm^3, the animals were treated orally with either (−)-trans-3-(5,6-dihydro-4H-pyrrolo[3,2,1-ij]quinolin-1-yl)-4-(1H-indol-3-yl)pyrrolidine-2,5-dione at 200 mg/kg or 300 mg/kg, or vehicle control daily (5 consecutive days, followed by a 2 day dosing holiday). (−)-trans-3-(5,6-dihydro-4H-pyrrolo[3,2,1-ij]quinolin-1-yl)-4-(1H-indol-3-yl)pyrrolidine-2,5-dione was formulated in PEG 400:20% Vitamin E TPGS (60:40). The animals received a total of 20 treatments of either (−)-trans-3-(5,6-dihydro-4H-pyrrolo[3,2,1-ij]quinolin-1-yl)-4-(1H-indol-3-yl)pyrrolidine-2,5-dione or vehicle control. Tumors were measured throughout treatment and the post-treatment observation period. Each point represents the mean±SEM often tumors. (See, FIG. 9, Panel A)
On the technique in general: A xenograft is tissue or cells of one species grown in another, often human tumour cells in immunodeficient mice.

The subject of data set [2] is human gastric cancer MKN45. Description: Human gastric cancer xenograft. Type of data set: in vivo. The note with it: monotherapy. Here is the method:
The efficacy of (−)-trans-3-(5,6-dihydro-4H-pyrrolo[3,2,1-ij]quinolin-1-yl)-4-(1H-indol-3-yl)pyrrolidine-2,5-dione was also tested in xenograft models with several other cancer cell lines: human pancreatic cancer MIA PaCa2 (FIG. 9, Panel B), human prostate cancer PC3 (FIG. 9, Panel C) and human gastric cancer MKN45 (FIG. 9, Panel D). The cells were treated with (−)-trans-3-(5,6-dihydro-4H-pyrrolo[3,2,1-ij]quinolin-1-yl)-4-(1H-indol-3-yl)pyrrolidine-2,5-dione as a monotherapy at indicated concentrations.

Data set [3] deals with Human cancer cell lines expressing c-Met and/or phospho-c-Met. Description: Cytotoxicity MTS assay. The data set is classed as cell-based. The note with it: 0.03 to 30 μM. Here is the method: (§1) Various cancer cell lines were treated with (−)-trans-3-(5,6-dihydro-4H-pyrrolo[3,2,1-ij]quinolin-1-yl)-4-(1H-indol-3-yl)pyrrolidine-2,5-dione at indicated concentrations ranging from 0.03 to 30 μM. The sensitivity of these cells to (−)-trans-3-(5,6-dihydro-4H-pyrrolo[3,2,1-ij]quinolin-1-yl)-4-(1H-indol-3-yl)pyrrolidine-2,5-dione was measured by a standard cytoxicity MTS assay (FIG. 10). Human cancer cell lines expressing c-Met and/or phospho-c-Met were sensitive to (−)-trans-3-(5,6-dihydro-4H-pyrrolo[3,2,1-ij]quinolin-1-yl)-4-(1H-indol-3-yl)pyrrolidine-2,5-dione.
Background: Tetrazolium dyes change colour on reduction, which living cells bring about.

Another data set deals with MCF-7. Description: Cytotoxicity MTS assay. The data set is classed as cell-based, human. Conditions: 0.03 to 30 μM; no immunodetectable c-Met or phospho-c-Met. On the procedure: as §1
For the next data set, the system named is NCI-H661. Description: Cytotoxicity MTS assay. Conditions: 0.03 to 30 μM; no immunodetectable c-Met or phospho-c-Met. Type of data set: cell-based, human. Here is the method: as §1
The next data set deals with SK-MEL-28. The data set can be described thus: Cytotoxicity MTS assay. The data set is classed as cell-based, human. The note with it: 0.03 to 30 μM; no immunodetectable c-Met or phospho-c-Met. Here is the method:
as §1

The target of another data set is Pim-1 (Homo sapiens, UniProt P11309). Description: Kinase panel inhibition, Pim-1. Type of data set: biochemical. Here is the method:
(−)-trans-3-(5,6-dihydro-4H-pyrrolo[3,2,1-ij]quinolin-1-yl)-4-(1H-indol-3-yl)pyrrolidine-2,5-dione was assessed for its activity to inhibit a large panel (n=230) of human kinases.

For another data set, the target named is T1, phospho-c-Met (Homo sapiens, UniProt P08581).
T1 construct: from tissue; host or cells: HT-29 xenograft tumour in mice
Description: Phospho-c-Met in HT-29 xenograft tumors (immunohistochemistry, Western blotting). The note with it: single dose 300 mg/kg, 24 hours later. Type of data set: in vivo, mice. On the procedure:
A human colon cancer xenograft model with HT-29 human colon cancer cells was established as described in Example 23. The tumor-bearing mice were treated with a single dose of (−)-trans-3-(5,6-dihydro-4H-pyrrolo[3,2,1-ij]quinolin-1-yl)-4-(1H-indol-3-yl)pyrrolidine-2,5-dione (300 mg/kg). The reduction of phospho-c-Met was detected immunohistochemically 24 hours later. […] Western blotting of the tumor sample for phospho-c-Met confirmed the immunohistochemical analysis (FIG. 11, Panel B).
(In general: In western blotting, separated proteins are transferred to a membrane and probed.)

For data set [4], the target named is T2, c-Met (Homo sapiens, UniProt P08581). Description: c-Met phosphorylation in MDA-MB-231 cells, basal and HGF-induced (Western blot). The note with it: serum-deprived 16 hours, 100 ng/ml HGF/SF for 10 minutes. On the set-up: Whole cell extracts were prepared in lysis buffer; endogenous in cells; host or cells: MDA-MB-231. Type of data set: cell-based. On the procedure:
MDA-MB-231 cells were serum-deprived overnight (16 hours) in the absence or in the presence of the indicated concentrations of the separate enantiomers (+)-trans-3-(5,6-dihydro-4H-pyrrolo[3,2,1-ij]quinolin-1-yl)-4-(1H-indol-3-yl)pyrrolidine-2,5-dione and (−)-trans-3-(5,6-dihydro-4H-pyrrolo[3,2,1-ij]quinolin-1-yl)-4-(1H-indol-3-yl)pyrrolidine-2,5-dione. Cells were treated with 100 ng/ml recombinant human Hepatocyte Growth Factor/Scatter Factor (HGF/SF) (R&D Systems #294-HG) for 10 minutes. Whole cell extracts were prepared in lysis buffer (20 mM Tris-HCl pH 7.5, 150 mM NaCl, 1 mM Na2EDTA, 1 mM EGTA, 1% Triton X-100, 2.5 mM sodium pyrophosphate, 1 mM beta-glycerophosphate, 1 mM Na3VO4, 1 μg/ml leupeptin, 1 mM phenylmethylsulfonyl fluoride) and sonicated. Protein concentration was measured by Bradford assay using the BioRad reagent (BioRad, Hercules, Calif.), according to the manufacturer's directions. Samples ([…] of protein) were resolved by 8% SDS-PAGE under reducing conditions and transferred onto a PVDF membrane (BioRad). […] Proteins were detected by incubation overnight at 4° C. in TBS-T with 5% milk and either a polyclonal antibody against phosphorylated c-Met (#3121) or a monoclonal antibody against β-actin (A-5441) (Sigma), which was used as a control for total protein loading. […]

Data set [5] has as its target T2, c-Met. Description: c-Met in tumor biopsies from treated patients. Type of data set: in vivo. On the set-up: the c-Met protein in tumor biopsies from patients; from tissue; host or cells: tumour biopsies from treated patients. Conditions: patients treated with the drug.

Chain of Pim-1 (P11309 whole entry): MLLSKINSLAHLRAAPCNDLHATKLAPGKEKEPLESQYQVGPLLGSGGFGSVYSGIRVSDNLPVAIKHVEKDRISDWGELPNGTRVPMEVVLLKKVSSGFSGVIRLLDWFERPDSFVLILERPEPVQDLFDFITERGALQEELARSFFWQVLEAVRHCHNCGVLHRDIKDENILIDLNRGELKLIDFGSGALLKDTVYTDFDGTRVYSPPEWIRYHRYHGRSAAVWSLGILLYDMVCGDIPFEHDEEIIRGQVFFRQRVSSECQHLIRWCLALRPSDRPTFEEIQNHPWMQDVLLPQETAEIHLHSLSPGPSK
T2 sequence (P08581 25-1390): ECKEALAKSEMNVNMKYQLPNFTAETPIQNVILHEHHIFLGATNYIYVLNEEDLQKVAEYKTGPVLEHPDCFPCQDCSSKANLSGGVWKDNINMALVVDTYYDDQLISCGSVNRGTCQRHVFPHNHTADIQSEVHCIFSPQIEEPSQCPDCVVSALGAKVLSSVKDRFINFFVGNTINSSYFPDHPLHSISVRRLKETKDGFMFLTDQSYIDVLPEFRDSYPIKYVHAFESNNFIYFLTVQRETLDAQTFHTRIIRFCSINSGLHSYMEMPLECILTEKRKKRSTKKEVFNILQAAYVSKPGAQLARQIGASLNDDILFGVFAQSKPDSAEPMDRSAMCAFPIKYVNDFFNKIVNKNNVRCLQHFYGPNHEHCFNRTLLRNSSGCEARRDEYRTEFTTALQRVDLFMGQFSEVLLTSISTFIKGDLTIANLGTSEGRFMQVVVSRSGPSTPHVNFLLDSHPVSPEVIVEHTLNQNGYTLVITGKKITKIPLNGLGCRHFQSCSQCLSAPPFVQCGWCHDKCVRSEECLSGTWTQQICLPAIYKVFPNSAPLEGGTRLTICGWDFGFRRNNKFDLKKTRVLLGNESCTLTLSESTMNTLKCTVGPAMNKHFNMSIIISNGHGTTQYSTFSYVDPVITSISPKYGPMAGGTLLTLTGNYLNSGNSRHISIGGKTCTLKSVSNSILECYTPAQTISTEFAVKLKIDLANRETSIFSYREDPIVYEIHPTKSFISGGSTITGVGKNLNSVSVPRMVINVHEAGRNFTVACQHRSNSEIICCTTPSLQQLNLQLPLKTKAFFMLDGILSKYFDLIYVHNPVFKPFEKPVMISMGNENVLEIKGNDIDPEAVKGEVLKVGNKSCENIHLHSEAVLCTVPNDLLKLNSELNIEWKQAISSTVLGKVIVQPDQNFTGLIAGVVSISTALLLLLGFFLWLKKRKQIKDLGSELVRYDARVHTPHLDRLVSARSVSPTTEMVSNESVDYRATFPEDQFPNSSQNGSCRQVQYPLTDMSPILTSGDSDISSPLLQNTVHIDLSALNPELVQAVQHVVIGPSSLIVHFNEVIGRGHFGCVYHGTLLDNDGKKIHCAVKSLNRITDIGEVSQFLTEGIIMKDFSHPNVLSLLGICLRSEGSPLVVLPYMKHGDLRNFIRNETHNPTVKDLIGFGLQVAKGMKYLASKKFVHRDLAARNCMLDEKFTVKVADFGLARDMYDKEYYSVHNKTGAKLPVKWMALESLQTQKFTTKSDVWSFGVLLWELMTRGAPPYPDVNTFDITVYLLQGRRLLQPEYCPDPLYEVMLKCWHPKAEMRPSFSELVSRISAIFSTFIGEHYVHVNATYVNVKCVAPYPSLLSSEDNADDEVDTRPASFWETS
T1 sequence (P08581 25-1390): as above

Regarding `O=C1NC(=O)[C@@H](c2cn3c4c(cccc24)CCC3)[C@@H]1c1c[nH]c2ccccc12` (single isomer, unassigned) [(−)-trans-3-(5,6-dihydro-4H-pyrrolo[3,2,1-ij]quinolin-1-yl)-4-(1H-indol-3-yl)pyrrolidine-2,5-dione], the “optimal tumor growth inhibition” value is recorded as 39% in data set [1] (200 mg/kg orally, p=0.006) and 55% in data set [1] (300 mg/kg orally, p=0.00001). Also, the “change in body weight” value in [1] (oral administration at 200 mg/kg or 300 mg/kg) is “no significant change in body weight”. Also, the tumor growth entry in [2] is reported as “significantly inhibited tumor growth”. In addition, the “sensitivity (cytotoxicity MTS assay)” value in data set [3] is “sensitive”; in the data set with MCF-7, “little sensitivity”; in the data set on NCI-H661, “little sensitivity”; in the data set with SK-MEL-28, “little sensitivity”. The molecule further yielded an IC50 at Pim-1 of 10 µM. Also, 10 µM produced 33% inhibition against Pim-1 (10 μM). In addition, the “amount of phospho-c-Met in tumor” value at phospho-c-Met is on record as “significant decrease in the amount of phospho-c-Met”. The “concentration that inhibits both basal and HGF-induced autophosphorylation of c-Met” value at c-Met [4] is “at least 30 nM”. Also, the “inhibition of c-Met protein in tumor biopsies” value at c-Met [5] was “ability to inhibit the c-Met protein in tumor biopsies”.
